Here are results for 1 compound from publication PMC8703412 (Pharmaceuticals, 2021).

Structures are written as SMILES. Values after ≈ are worked out from the molar mass of the structure shown. Where two headings read alike, the source gives them in different places.

In data set [1] the test system is Mycobacterium avium 330/88. The experiment in a line: MIC micromethod in Šula's medium, M. avium. The format is cell-based. Conditions: Mycobacterium avium.
In data set [2] the test system is Mycobacterium tuberculosis strain 331/88 (i.e., H37Rv). The experiment in a line: MIC micromethod in Šula's medium, drug-susceptible Mtb. The format is cell-based. Particulars: Mycobacterium tuberculosis, H37RV.
Data set [3] deals with Mtb. H37Ra pVV16-katGsmeg. Nature of the data set: microbe, parasite or virus in culture. The format is cell-based. Particulars: Mycobacterium tuberculosis, 672 h, read-out: MIC H37Ra pVV16-katGsmeg.
Data set [4] relates to Mycobacterium kansasii 6509/96 (clinical isolate). Nature of the data set: MIC micromethod in Šula's medium, M. kansasii. The format is cell-based. Conditions: Mycobacterium kansasii, Table 1.
Another data set concerns Mtb. H37Ra pMV261/pVV16. Nature of the data set: microbe, parasite or virus in culture. The class given is cell-based, Mycobacterium tuberculosis.
For a further data set, the system named is Mtb. H37Ra pMV261-inhA. Nature of the data set: microbe, parasite or virus in culture. The class given is cell-based, Mycobacterium tuberculosis.
Data set [5] is described as follows: Cytotoxicity, CellTiter 96 (MTS) assay. Particulars: human, Cytotoxicity for HepG2 cells, IC50, 24 h incubation, 1–1000 µM.
The nature of data set [6]: Solubility in the cytotoxicity concentration range. The class given is physicochemical. Conditions: cytotoxicity assay medium, DMSO max 1% v/v. On the procedure: The cells were seeded in a density 15,000 cells per well in a 96-well plate. The next day the cells were treated with each of the tested substances at a broad range of concentrations (1–1000 µM) in triplicates; the compounds were dissolved in DMSO (maximal incubation concentration of DMSO was 1% v/v). The controls representing 100% cell viability, 0% cell viability (the cells treated with 10% DMSO), no cell control and vehiculum controls were incubated in parallel, also as triplicates. After 24 h of incubation in a humidified atmosphere containing 5% CO2 at 37 °C, the reagent from the kit CellTiter 96 AQueous One Solution Cell Proliferation Assay (CellTiter 96; PROMEGA, Fitchburg, WI, USA) was added. After 2 h incubation at 37 °C, absorbance of samples was recorded at 490 nm (TECAN, Infinita M200, Grödig, Austria). A standard toxicological parameter IC50 was calculated by nonlinear regression from a semilogarithmic plot of incubation concentration versus percentage of absorbance relative to untreated controls using GraphPad Prism 8 software (GraphPad Software, Inc., La Jolla, CA, USA).
Cytotoxicity was quantified using the standard parameter IC50 (Figure 3).

What is called melting point is the temperature, or range, at which the solid turns liquid. A word on the IC50: it is the concentration needed to halve the response being measured. Lower therefore signals greater potency in that assay. Regarding `C/C(=N\NC(=O)c1ccncc1)C(=O)Oc1cc(Cl)ccc1Oc1ccc(Cl)cc1Cl` [3o, 5-Chloro-2-(2,4-dichlorophenoxy)phenyl (E)-2-(2-isonicotinoylhydrazineylidene)propanoate], the melting point fell in the range of 153 to 155 °C. Moreover, the MIC in data set [1] (330/88, 336 h, 14 d incubation, Table 1, read-out: MIC M. avium 330/88 14 d) turned out to be 64 µM (≈ 30.6 µg/mL). For the same compound, in [1] (330/88, 504 h, 14 and 21 d, read-out: MIC for M. avium), the MIC was in the range of 32 to 64 µM (≈ 15.3 to 30.6 µg/mL). The MIC in [1] (330/88, 504 h, 21 d incubation, Table 1, read-out: MIC M. avium 330/88 21 d) came out at 64 µM (≈ 30.6 µg/mL). Besides, in data set [2] (336 h, 14 d incubation, esters, Table 1, read-out: MIC Mtb. 331/88 14 d), the MIC was not above 0.125 µM. Also, the MIC in [2] (504 h, 21 d incubation, esters, Table 1, read-out: MIC Mtb. 331/88 21 d) was not above 0.125 µM. Moreover, the MIC in data set [2] (Table 4, read-out: MIC H37Rv) is 0.125 µM (≈ 0.0598 µg/mL). Further, the MIC in data set [3] stood at 0.125 µM (≈ 0.0598 µg/mL). Moreover, the MIC in data set [4] (168 h, 7 d incubation, read-out: MIC M. kansasii 6509/96 7 d) is 4 µM (≈ 1.91 µg/mL). Moreover, in data set [4] (336 h, 14 d incubation, read-out: MIC M. kansasii 6509/96 14 d), the MIC is 4 µM (≈ 1.91 µg/mL). Besides, the MIC in data set [4] (504 h, 21 d incubation, read-out: MIC M. kansasii 6509/96 21 d) was 8 µM (≈ 3.83 µg/mL). Besides, the “MIC H37Ra pMV261/pVV16” value in the data set with Mtb. H37Ra pMV261/pVV16 stood at 0.325. The MIC in the data set on Mtb. H37Ra pMV261/pVV16 (Mycobacterium tuberculosis, H37RA, 672 h, read-out: MIC H37Ra pMV261/pVV16) amounted to 0.325 µM (≈ 0.156 µg/mL). Also, the MIC H37Ra pMV261-inhA in the data set on Mtb. H37Ra pMV261-inhA worked out at 6 µM. For the same compound, in the data set with Mtb. H37Ra pMV261-inhA (Mycobacterium tuberculosis, H37RA, 672 h, read-out: MIC H37Ra pMV261-inhA), the MIC came out at 6.25 µM (≈ 2.99 µg/mL). In [5], this compound registered a half-maximal inhibitory concentration (IC50) at 24 h of 211 µM. The “solubility in the concentration range of 1–1000 μM” value in data set [6] is given as “without any solubility problem”.
